Reference: ChEMBL document CHEMBL1154295, “Potent and selective steroidal inhibitors of 17beta-hydroxysteroid dehydrogenase type 7, an enzyme that catalyzes the reduction of the key hormones estrone and dihydrotestosterone” (J Med Chem, 2009)

Experiments:
[1] = target: T1, 3-keto-steroid reductase/17-beta-hydroxysteroid dehydrogenase 7 (Homo sapiens) (UniProt P56937); details: HEK293, at 0.3 µM
T1 sequence (whole entry): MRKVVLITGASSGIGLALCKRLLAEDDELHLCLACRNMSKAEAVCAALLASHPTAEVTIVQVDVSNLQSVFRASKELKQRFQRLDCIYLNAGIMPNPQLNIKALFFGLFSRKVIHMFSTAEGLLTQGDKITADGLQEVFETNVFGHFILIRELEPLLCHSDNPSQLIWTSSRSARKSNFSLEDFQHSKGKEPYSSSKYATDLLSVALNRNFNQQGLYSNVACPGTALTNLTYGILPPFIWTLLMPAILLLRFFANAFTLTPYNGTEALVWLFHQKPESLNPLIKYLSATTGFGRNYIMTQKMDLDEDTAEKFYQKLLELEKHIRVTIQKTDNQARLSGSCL
Description: Inhibition of human 17beta-HSD7 expressed in HEK293 cells assessed as inhibition of reduction of [14C]estrone into [14C]estradiol at 0.3 uM after 7 hrs

[2] = target: T1, 3-keto-steroid reductase/17-beta-hydroxysteroid dehydrogenase 7 (Homo sapiens); details: HEK293, at 3 µM
Description: Inhibition of human 17beta-HSD7 expressed in HEK293 cells assessed as inhibition of reduction of [14C]estrone into [14C]estradiol at 3 uM after 7 hrs

Structure (SMILES) | inhibition [1] [%] | inhibition [2] [%]
CC1(C)CC[C@@]2(CC[C@H]3[C@@H]4CCc5cc(C(=O)Oc6ccccc6)ccc5[C@H]4CC[C@@]32C)OC1=O | 14 | 28.6
C[C@]12C[C@H](O)[C@H]3[C@@H](CCC4=CC(=O)CC[C@@]43C)[C@@H]1CC[C@@H]2C(=O)CO | 8.1 | 14.9
CN1C(=O)CC[C@]2(C)[C@H]3CC[C@]4(C)[C@@H](N5CCCC5=O)CC[C@H]4[C@@H]3CC[C@@H]12 | 15.3 | 15.1
CC(C)(C#N)c1cc(Cn2cncn2)cc(C(C)(C)C#N)c1 | 6.5 | 0.3
CN1C(=O)CC[C@]2(C)[C@H]3CC[C@]4(C)[C@@H](N(C=O)Cc5ccccc5)CC[C@H]4[C@@H]3CC[C@@H]12 | 31.6 | 77.6
CN(C=O)[C@H]1CC[C@H]2[C@@H]3CC[C@H]4N(C)C(=O)CC[C@]4(C)[C@H]3CC[C@]12C | 14.5 | 15.8
C[C@]12CCC(=O)C(O)=C1CC[C@@H]1[C@@H]2CC[C@]2(C)C(=O)CC[C@@H]12 | 8.1 | 7.1
CCCC1CC[C@@]2(CC[C@H]3[C@@H]4CCc5cc(O)ccc5[C@H]4CC[C@@]32C)OC1=O (stereo not given in full) | 15.8 | 47.1
CN1C(=S)CC[C@]2(C)[C@H]3CC[C@@]4(C)[C@@H](CC[C@@]45CCCC(=O)O5)[C@@H]3CC[C@@H]12 | 11.9 | 12.9
CC1(C)CC[C@@]2(CC[C@H]3[C@@H]4CCc5cc(O)c(C(N)=O)cc5[C@H]4CC[C@@]32C)OC1=O | 7.9 | 23.8
CC1=C(c2ccc(O)cc2)[C@H](c2ccc(OCCN3CCCCC3)cc2)Oc2cc(O)ccc21 | 3.1 | 4.2
CCC[C@]1(O)CC[C@H]2[C@@H]3CC[C@H]4N(C)C(=O)CC[C@]4(C)[C@H]3CC[C@@]21C | 47.6 | 98.5
CC1(C)CC[C@@]2(CC[C@H]3[C@@H]4CCc5cc(O)c(I)cc5[C@H]4CC[C@@]32C)OC1=O | 10 | 24.9
CCCNC(=O)N(C1CC1)[C@H]1CC[C@H]2[C@@H]3CC[C@H]4N(C)C(=O)CC[C@]4(C)[C@H]3CC[C@]12C | 12.9 | 41.5
CC/C(=C(\c1ccccc1)c1ccc(OCCN(C)C)cc1)c1ccccc1 | 8.9 | 3.2
C[C@]12CC[C@H]3[C@@H](CCC4=CC(=O)CC[C@@]43C)[C@@H]1CC[C@@H]2C(=O)CO | 11.2 | 11.9
CCN(C(=O)c1ccccc1)[C@H]1CC[C@H]2[C@@H]3CC[C@H]4N(C)C(=O)CC[C@]4(C)[C@H]3CC[C@]12C | 63.4 | 99.4
CC1(C)CC[C@@]2(CC[C@H]3[C@@H]4CCc5cc(OS(=O)(=O)c6ccccc6)ccc5[C@H]4CC[C@@]32C)OC1=O | 11.7 | 29.5
C[C@]12CC[C@H](O)CC1=CC[C@@H]1[C@@H]2CC[C@]2(C)C(=O)CC[C@@H]12 | 5.7 | 12.1
CC(=O)[C@H]1CC[C@H]2[C@@H]3CCC4=CC(=O)CC[C@]4(C)[C@H]3CC[C@]12C | 7.3 | 19.1
CC1(C)CC[C@@]2(CC[C@H]3[C@@H]4CCc5cc(O)ccc5[C@H]4CC[C@@]32C)OC1=O | 20.1 | 69.4

Structure (SMILES) | inhibition [1] [%] | inhibition [2] [%]
CCCCCN(C=O)[C@H]1CC[C@H]2[C@@H]3CC[C@H]4NC(=O)CC[C@]4(C)[C@H]3CC[C@]12C | 35.2 | 89.1
C[C@]12CC[C@@H]3c4ccc(O)cc4CC[C@H]3[C@@H]1CC[C@@]21CCC(=O)O1 | 3.9 | 3.1
CC1(C)CC[C@@]2(CC[C@H]3[C@@H]4CCc5cc(C#N)ccc5[C@H]4CC[C@@]32C)OC1=O | 23.8 | 34.6
COCCOc1ccc2c(c1)CC[C@@H]1[C@@H]2CC[C@@]2(C)[C@H]1CC[C@@]21CCC(C)(C)C(=O)O1 | 23.8 | 52.3
CC1(C)C[C@@]2(CC[C@H]3[C@@H]4CCc5cc(O)ccc5[C@H]4CC[C@@]32C)OC1=O | 14.5 | 42.4
COc1cc2c(cc1S(N)(=O)=O)CC[C@@H]1[C@@H]2CC[C@]2(C)C(=O)CC[C@@H]12 | 6.4 | 10.3
COC(=O)c1cc2c(cc1O)CC[C@@H]1[C@@H]2CC[C@@]2(C)[C@H]1CC[C@@]21CCC(C)(C)C(=O)O1 | 21.1 | 30
CC1(C)CC[C@@]2(CC[C@H]3[C@@H]4CCc5c(cc(Cl)c(O)c5Cl)[C@H]4CC[C@@]32C)OC1=O | 20.2 | 37
CC(C)(C)NC(=O)[C@H]1CC[C@H]2[C@@H]3CC[C@H]4NC(=O)C=C[C@]4(C)[C@H]3CC[C@]12C | 3.7 | 5.4
CCOc1ccc2c(c1)CC[C@@H]1[C@@H]2CC[C@@]2(C)[C@H]1CC[C@@]21CCC(C)(C)C(=O)O1 | 20.6 | 29.3
C[C@]12CC[C@@]3(C[C@H]1CC[C@@H]1[C@@H]2CC[C@]2(C)C(=O)CC[C@@H]12)CN(CC(CN1CCOCC1)OC(=O)CCC1CCCC1)C(=O)O3 (stereo not given in full) | 18.9 | 8.7
CC1(C)CC[C@@]2(CC[C@H]3[C@@H]4CCc5cc(OP(=O)(O)O)ccc5[C@H]4CC[C@@]32C)OC1=O | 0 | 16.5
C[C@]12CC[C@@H]3c4ccc(O)cc4CC[C@H]3[C@@H]1CC[C@@]21CCCC(=O)O1 | 0 | 13.8
CN1C(=S)CC[C@]2(C)[C@H]3CC[C@@]4(C)[C@@H](CC[C@@]45CCCC(=S)O5)[C@@H]3CC[C@@H]12 | 5.3 | 36.5
COC(=O)[C@H]1CC[C@H]2[C@@H]3CC=C4C=C(Cl)CC[C@]4(C)[C@H]3CC[C@]12C | 0.6 | 16.2
COc1cc2c(cc1S(N)(=O)=O)CC[C@@H]1[C@@H]2CC[C@@]2(C)[C@H]1CCC2(O)Cc1ccc(C(C)(C)C)cc1 (stereo not given in full) | 0 | 6.4
CC1(C)CC[C@@]2(CC[C@H]3[C@@H]4CCC5CC(=O)CC[C@]5(C)[C@H]4CC[C@@]32C)OC1=O (stereo not given in full) | 2.2 | 26.4
CCCN(CC1C2CC3CC(C2)CC1C3)C[C@@]1(O)CC[C@@]2(C)[C@@H](CC[C@@H]3[C@@H]2CC[C@]2(C)C(=O)CC[C@@H]32)C1 (stereo not given in full) | 29 | 18.8
CCCNC(=O)N(C)[C@H]1CC[C@H]2[C@@H]3CC[C@H]4N(C)C(=O)CC[C@]4(C)[C@H]3CC[C@]12C | 2.7 | 2.2
CC1(C)CC[C@@]2(CC[C@H]3[C@@H]4CC[C@H]5NC(=O)C=C[C@]5(C)[C@H]4CC[C@@]32C)OC1=O | 5 | 39.6
CN1C(=O)CC[C@]2(C)[C@H]3CC[C@]4(C)[C@@H](N(C=O)C5CCCCC5)CC[C@H]4[C@@H]3CC[C@@H]12 | 23.9 | 75.2

Structure (SMILES) | inhibition [1] [%] | inhibition [2] [%]
C[C@]12CCC(=O)C=C1CC[C@@H]1[C@@H]2[C@@H](O)C[C@]2(C=O)[C@@H](C(=O)CO)CC[C@@H]12 | 14.4 | 7.3
CC1=C(c2ccc(OC(=O)C(C)(C)C)cc2)[C@H](c2ccc(OCCN3CCCCC3)cc2)Oc2cc(OC(=O)C(C)(C)C)ccc21 | 0 | 0
CN(C)C(=O)c1ccc2c(c1)CC[C@@H]1[C@@H]2CC[C@@]2(C)[C@H]1CC[C@@]21CCC(C)(C)C(=O)O1 | 15.2 | 36.1
CC(C)(C)NC(=O)[C@H]1CC[C@H]2[C@@H]3CC=C4C=C(Cl)CC[C@]4(C)[C@H]3CC[C@]12C | 13.4 | 56.8
C[C@]12CCC(=O)N[C@@H]1CC[C@@H]1[C@@H]2CC[C@]2(C)[C@@H](N3CCC3=O)CC[C@@H]12 | 15.4 | 20.3
O=c1oc2cc(O)ccc2c2oc3cc(O)ccc3c12 | 5.5 | 2.3
CCCCCNC(=O)[C@H]1CC[C@H]2[C@@H]3CC[C@H]4N(C)C(=O)CC[C@]4(C)[C@H]3CC[C@]12C | 52.7 | 96.3
C[C@]12C=CC(=O)C=C1CC[C@@H]1[C@@H]2CC[C@]2(C)C(=O)CC[C@@H]12 | – | 21.3
C[C@]12CCC(=O)C[C@@H]1CC[C@@H]1[C@@H]2[C@@H](O)C[C@@]2(C)[C@H]1CC[C@]2(O)C(=O)CO | – | 17.2
CN(C)C(=O)CCCCCCCCCCC1Cc2cc(O)ccc2[C@H]2CC[C@]3(C)[C@@H](O)[C@H](Cl)C[C@H]3[C@H]12 (stereo not given in full) | – | 18.5
C[C@]12CCC(=O)C[C@@H]1CC[C@@H]1[C@@H]2CC[C@]2(C)[C@@H](O)CC[C@@H]12 | – | 49.6
C[C@]12CC[C@@H]3c4ccc(O)cc4C[C@@H](CCCCCCCCC[S+]([O-])CCCC(F)(F)C(F)(F)F)[C@H]3[C@@H]1CC[C@@H]2O (stereo not given in full) | – | 15.7
C[C@]12CC[C@H](O)C[C@@H]1CC[C@@H]1[C@@H]2CC[C@]2(C)C(=O)CC[C@@H]12 | – | 8.1
C[C@]12CC[C@@H]3c4ccc(O)cc4CC[C@H]3[C@@H]1CCC2=O | – | 10.1
C[C@]12CCC(=O)C[C@@H]1CC[C@@H]1[C@@H]2CC[C@@]2(C)[C@H]1CC[C@]2(O)C(=O)CO | – | 13.4
CC(=O)[C@@]1(O)CC[C@H]2[C@@H]3CCC4=CC(=O)CC[C@]4(C)[C@H]3CC[C@@]21C | – | 20.8
C[C@]12CC[C@H]3[C@@H](CC=C4C[C@@H](O)CC[C@@]43C)[C@@H]1CC[C@@H]2O | – | 29.7
CC(=O)[C@@]1(O)CC[C@H]2[C@@H]3CC[C@H]4CC(=O)CC[C@]4(C)[C@H]3CC[C@@]21C | – | 14.5
C[C@]12CC[C@@H]3c4ccc(O)cc4CC[C@H]3[C@@H]1C[C@@H](O)[C@@H]2O | – | 29.5
